From article PMC5587682 (Scientific Reports, 2017)
Like-named read-outs stand apart in the source and are kept apart here. Positions of bridges follow the written chain, without caps; N, C: chain ends. Residues, ends and D or L forms follow the SMILES beside them.

Experiments:
[1] = tested on: A/Parma/24/09 H1N1
[2] = tested on: A/Roma-ISS/02/08 H1N1 oseltamivir-sensitive virus; format: cell-based, Influenza A virus; conditions: turkey erythrocytes
[3] = tested on: A/Roma-ISS/02/08 H1N1
[4] = tested on: A/Parma/05/06 H3N2
[5] = tested on: A/Parma/05/06 H3N2; format: cell-based, Influenza A virus; conditions: turkey erythrocytes
[6] = tested on: Influenza A virus strains (all tested viruses); conditions: earlier work; ref [23]; cited from earlier work
[7] = tested on: Influenza A virus strains (all tested viruses); conditions: earlier work; ref [23]; cited from earlier work; remark: listed apart in the source
[8] = A/Parma/24/09 H1N1, MDCK cells, CC50 >25 μM
[9] = A/Roma-ISS/02/08 H1N1, MDCK cells, CC50 >25 μM
[10] = A/Roma-ISS/02/08 H1N1, MDCK cells, mean of 3 experiments with standard errors
[11] = A/Parma/05/06 H3N2, MDCK cells, CC50 >25 μM
[12] = A/Parma/24/09 H1N1, MDCK cells, mean of 3 experiments with standard errors
[13] = A/Parma/05/06 H3N2, MDCK cells, mean of 3 experiments with standard errors
[14] = A/Roma-ISS/2/08 H1N1, neutralization

C[C@H](NC(=O)[C@H](Cc1c[nH]c2ccccc12)NC(=O)[C@H](CC(=O)O)NC(=O)[C@H](C)NC(=O)[C@@H](NC(=O)[C@H](CO)NC(=O)[C@H](CCC(=O)O)NC(=O)CNC(=O)[C@H](CC(N)=O)NC(=O)[C@@H](N)[C@@H](C)O)[C@@H](C)O)C(=O)N[C@@H](CCCCN)C(=O)N[C@@H](CC(N)=O)C(N)=O [Peptide 6, TNGESTADWAKN] (H-TNGESTADWAKN-NH2; N-terminus and C-terminus assumed)
SI (CC50/EC50) [1, 8]: >5.10^2
HI titer [2]: 0.7 nM
SI (CC50/EC50) [3, 9]: >6.25.10^4
EC50 [3, 10]: 400 ± 0.02 pM
SI (CC50/EC50) [4, 11]: >2.5.10^3
HI titer [5]: 0.3 nM

SKHSSLDCVLRPTEGY [Peptide 12, bLf C-lobe fragment 418–433]
HI titer [2]: 0.7 nM
HI titer [5]: 0.03 nM

CC(=O)N[C@@H](CO)C(=O)N[C@@H](CC(C)C)C(=O)N[C@@H](CC(=O)O)C(=O)N[C@@H](CS)C(N)=O [Peptide 15, SLDC] (Ac-SLDC-NH2)
SI (CC50/EC50) [1, 8]: >5.4.10^6
EC50 [1, 12]: 4.6 ± 0.05 pM
SI (CC50/EC50) [3, 9]: >5.10^7

NRKSSKHSSLDCVLRP [Peptide 11, bLf C-lobe fragment 414–429]
HI titer [5]: 0.4 nM

C[C@@H](O)[C@H](NC(=O)[C@H](CCC(=O)O)NC(=O)[C@H](CO)NC(=O)[C@@H](N)CCCCN)C(=O)N[C@@H](CCCCN)C(=O)N[C@@H](CC(N)=O)C(=O)O [Peptide 8, KSETKN] (H-KSETKN-OH; N-terminus and C-terminus assumed)
SI (CC50/EC50) [1, 8]: >5.10^4
EC50 [1, 12]: 500 ± 0.46 pM
HI titer [2]: 1.5 nM
SI (CC50/EC50) [3, 9]: >5.10^7
SI (CC50/EC50) [4, 11]: >0.65.10^2
HI titer [5]: 3 nM

NGESSADWAKN [Peptide 3]
concentration inhibiting viral hemagglutination [6]: low picomolar
concentration inhibiting viral infection [7]: low picomolar

CC(C)C[C@H](NC(=O)[C@H](CO)NC(=O)[C@H](CO)NC(=O)[C@H](Cc1c[nH]cn1)NC(=O)[C@H](CCCCN)NC(=O)[C@@H](N)CO)C(=O)N[C@@H](CC(=O)O)C(=O)N[C@@H](CS)C(=O)N[C@H](C(=O)N[C@@H](CC(C)C)C(=O)N[C@@H](CCCNC(=N)N)C(=O)N1CCC[C@H]1C(=O)O)C(C)C [Peptide 1, SKHSSLDCVLRP] (H-SKHSSLDCVLRP-OH)
SI (CC50/EC50) [1, 8]: >8.10^6
SI (CC50/EC50) [3, 9]: >6.25.10^6
SI (CC50/EC50) [4, 11]: >4.4.10^6

CC(C)C[C@H](NC(=O)[C@@H](NC(=O)[C@H](CS)NC(=O)[C@H](CC(=O)O)NC(=O)[C@H](CC(C)C)NC(=O)[C@@H](N)CO)C(C)C)C(=O)N[C@@H](CCCNC(=N)N)C(=O)N1CCC[C@H]1C(N)=O [Peptide 13, SLDCVLRP] (H-SLDCVLRP-NH2)
SI (CC50/EC50) [1, 8]: >1.10^7
EC50 [1, 12]: 2.5 ± 0.37 pM
HI titer [2]: 0.0007 nM
SI (CC50/EC50) [3, 9]: >8.33.10^7
SI (CC50/EC50) [4, 11]: >8.33.10^4
EC50 [4, 13]: 300 ± 0.2 pM
loss of activity with respect to 1 ([4]; H3N2 strain, neutralization): ≈ 50 fold
HI titer [5]: 0.0004 nM

CC(=O)N[C@@H](CO)C(=O)N[C@@H](CCCCN)C(=O)N[C@@H](Cc1c[nH]cn1)C(=O)N[C@@H](CO)C(N)=O [Peptide 17, SKHS] (Ac-SKHS-NH2)
SI (CC50/EC50) [1]: >5.2.10^8
SI (CC50/EC50) [3]: >8.33.10^6
EC50 ([3]; A/Roma-ISS/02/08, 1 h): 3 ± 0.61 pM
SI (CC50/EC50) [4]: >5.10^6
EC50 ([4]; A/Parma/05/06, 1 h): 5 ± 0.02 pM

CC(C)C[C@H](NC(=O)[C@H](CO)NC(=O)[C@H](CO)NC(=O)[C@H](Cc1c[nH]cn1)NC(=O)[C@H](CCCCN)NC(=O)[C@@H](N)CO)C(=O)N[C@@H](CC(=O)O)C(=O)N[C@@H](CS)C(=O)O [Peptide 16, SKHSSLDC] (H-SKHSSLDC-OH; N-terminus and C-terminus assumed)
fold more potent than 1 ([1]; A/Parma/24/09 H1N1, neutralization): 30 fold
SI (CC50/EC50) [1, 8]: >2.5.10^8
HI titer [2]: 0.3 nM
fold less active than 1 [3, 14]: 20 fold
fold less active than 13 [3, 14]: 270 fold
SI (CC50/EC50) [3, 9]: >3.125.10^5
EC50 [3, 10]: 80 ± 0.19 pM
SI (CC50/EC50) [4, 11]: >5.10^6
EC50 [4, 13]: 5 ± 0.45 pM
HI titer [5]: 12 nM

AGDDQGLDKCVPNSKEK [Peptide 2, bLf C-lobe fragment 506–522]
concentration inhibiting viral hemagglutination [6]: low picomolar
concentration inhibiting viral infection [7]: low picomolar

CC(C)C[C@H](NC(=O)CNC(=O)[C@H](CCC(=O)O)NC(=O)[C@H](CC(N)=O)NC(=O)[C@H](C)NC(=O)[C@@H](N)CCCCN)C(=O)N[C@H](C(=O)N[C@@H](Cc1c[nH]c2ccccc12)C(=O)N[C@@H](CC(N)=O)C(=O)N[C@@H](CO)C(=O)N[C@@H](CC(C)C)C(=O)N[C@@H](CCCCN)C(=O)N[C@@H](CC(=O)O)C(=O)N[C@@H](CCCCN)C(=O)O)[C@@H](C)O [Peptide 4, KANEGLTWNSLKDK] (H-KANEGLTWNSLKDK-OH)
SI (CC50/EC50) [1, 8]: >5.10^2
SI (CC50/EC50) [3, 9]: >2.5.10^7
EC50 [3, 10]: 1 ± 0.15 pM
SI (CC50/EC50) [4, 11]: >2.5.10^4

C[C@H](NC(=O)CNC(=O)[C@@H]1CCCN1C(=O)[C@H](C)NC(=O)[C@@H]1CSSC[C@H](NC(=O)[C@H](CO)NC(=O)CNC(=O)[C@@H](N)[C@@H](C)O)C(=O)N[C@@H](C)C(=O)N[C@@H](Cc2ccccc2)C(=O)N[C@@H](CC(=O)O)C(=O)N[C@@H](CCC(=O)O)C(=O)N[C@@H](Cc2ccccc2)C(=O)N[C@@H](Cc2ccccc2)C(=O)N[C@@H](CO)C(=O)N[C@@H](CCC(N)=O)C(=O)N[C@@H](CO)C(=O)N1)C(=O)N[C@@H](CC(=O)O)C(=O)N1CCC[C@H]1C(=O)N[C@@H](CCCCN)C(=O)N[C@@H](CO)C(=O)N[C@@H](CCCNC(=N)N)C(=O)O [Peptide 5] (H-TGSCAFDEFFSQSCAPGADPKSR-OH; disulfide 4-14; N-terminus assumed)
HI titer [5]: 97 nM

CC(=O)N[C@H](C(=O)N[C@@H](CC(C)C)C(=O)N[C@@H](CCCNC(=N)N)C(=O)N1CCC[C@H]1C(N)=O)C(C)C [Peptide 14, VLRP] (Ac-VLRP-NH2)
SI (CC50/EC50) [1]: >2.5.10^7
EC50 ([1]; A/Parma/24/09, 1 h): 1 ± 0.05 pM
SI (CC50/EC50) [3]: >5.55.10^7
SI (CC50/EC50) [4]: >1.10^5
EC50 ([4]; A/Parma/05/06, 1 h): 250 ± 0.42 pM

NRKSSKHSSLDCVLRPTEGY [Peptide 10, bLf C-lobe fragment 414–433]
HI titer [2]: 0.3 nM
HI titer [5]: 0.0014 nM
